Results published in article PMC7794433, “Peptide signaling without feedback in signal production operates as a true quorum sensing communication system in Bacillus subtilis” (Communications Biology, 2021).
Entries after “also recorded” stand apart in the source; their conditions may differ.

Key:
[1] = test system: srfA promoter in B. subtilis PS-216 (∆comQ, PsrfAA-yfp); assay: srfA promoter response (Yfp fluorescence per cell) to exogenously added ComX; type: cell-based, Bacillus subtilis
Description: In our model, the expression level of the srfA operon serves as a measure for the response (RM) to the signal molecule SM, represented by ComX. To study how RM depends on SM we evaluated promoter activity of srfA in the B. subtilis PS-216 (∆comQ, PsrfAA-yfp), which carries the markerless deletion of comQ[42] and is therefore signal-deficient. […] The response to SM was sigmoidal. […] We have therefore taken the 4 hours response curve (Fig. 4a) as a reference for further communication system analysis. The sigmoidal functions can typically describe the relationship between transcription factors and promoter activities, and can be modeled by the Hill equation[43],[44]. […] This agrees with the research showing that two molecules of the ComA homodimer cooperatively bind to the two promoter regions located upstream of the RNAP binding sites of srfA[13],[20],[45].
To quantify a response (RM) to different signal molecule (SM) concentrations at the population level we used the signal deficient B. subtilis PS-216 (∆comQ PsrfAA-yfp), which carries the comQ marker-less deletion and the srfA promoter tagged with the Yfp fluorescent reporter (Supplementary Table 1).
(final concentration of 50 µg mL^–1). […] The plate was placed on a microtiter plate shaker (1 mm orbit, 1100 rpm) that was positioned in the humidified chamber to eliminate sample evaporation. To improve the homogeneity of the conditions (airflow, temperature) on the microtiter plate the microtiter plate lids were elevated by 2 mm relative to the surface of microtiter plate. The plates were incubated at 37 °C for 3, 4, or 6 h. The cells were then re-suspended and fixed in 200 µL of 1% agarose containing DAPI dye (6 µg mL^−1).
For quantitative analysis we used laser confocal fluorescence microscopy (Zeiss, LSM 800). The images were acquired by two laser channels—488 nm laser for acquiring fluorescence from Yfp protein and 405 nm laser to acquire fluorescence from DAPI dye. The acquired images were 1024 × 1024 pixels in size with 16-bit color depth at 20× optical magnification (objective 20×/NA 0.4, Zeiss) and were analyzed with Fiji-ImageJ[59] custom script. Four images per well of microtiter plate were taken, each image contained about 350 cells. The measure for amount of Yfp on image was integrated density i.e., the product of mean fluorescence intensity and area taken by the cells. The response per cell was quantified as the ratio of image integrated density by the number of cells obtained from DAPI image.
The analytical form of the model equation for response per cell to the signal during bacterial growth in the fermenter batch system (Eq. 3, eq S11) was derived and fitted to the experimental data by the help of Wolfram Mathematica 11.0 (Wolfram Research, Inc.). […]

[2] = test system: ComX biosensor BD2876 (ΔcomQ, srfA-lacZ); assay: β-galactosidase response of ComX biosensor BD2876 to spent medium or added ComX; type: cell-based, Bacillus subtilis; conditions: ≈1 nM ComX in PS-216 ΔcomQ spent medium (positive control)
Description: Overnight cultures were grown in competence medium[57] (CM) supplemented with L-histidine, L-leucine, and L-methionine (50 μg mL^–1). Prior to fermenter inoculation, the cells were washed twice by replacing the spent medium of overnight culture with SS buffer[58]. Cell suspension was inoculated into 1.2 L of fresh CM (2% inoculum). Incubation was performed at 37 °C with mixing at 700 rpm and the closed off air flow. In instances where we tested O2 impact on SM concentration the medium was saturated with O2 by ensuring a supply of compressed air at a flow rate of 1 L min^-1. The dissolved O2 was measured using the O2 polarized electrode InPro 6820 (Mettler Toledo). No pH correction was performed or anti foaming agents were added.
control) ▲,,, or supplemented with the wt strain spent medium 10 times diluted by spent medium of the
ΔcomQ strain (experimental) ▲,,; The spent medium of the PS-216 (ΔcomQ) strain was obtained in the
parallel fermenter batch system. The strains PS-216 wt and PS-216 (ΔcomQ) were grown in the fermenter batch
system where oxygen supply was limited (a) or supplied to the saturation (b).
to 3 independent experiments.

[3] = Aging of purified ComX stock solution followed by HPLC; type: physicochemical; conditions: 4 °C
Description: spectrometer (Bruker, Germany). FlexControl 3.3 software (Bruker, Germany) was used to control the instrument, FlexAnalysis 3.3 to process data and to calibrate spectra (Bruker, […]
two-sided), for about 2-fold compared to the original medium (Fig. S6b ). To further increase […]
recombinant proteins in E. coli and gained altogether significant 5-fold increase (P < 0.0001, t-value= 9.6, two- sided) compared to the original medium. The overnight LB E. coli ED367 culture, supplemented with 100 µg/mL of Amp, grown in 37 °C (200 rpm), was transferred to fresh TB medium (1 % inoculum) supplemented by 20 mM MgCl2 and 100 µg/mL of Amp.
After about 2 h and 45 min of incubation at 37 °C (200 rpm) when culture reached OD650 of […]., the spent growth medium was removed by culture centrifugation (5000 g, 5 min, room temperature). […]
β-galactosidase assay. […] To improve the sensitivity of the assay, the plates were then warmed to 30 °C, 25 μL ortho- nitrophenyl-β-galactoside (ONPG) substrate (8 mg/mL) was added and the absorbance (420 nm) in 1 min intervals was read using a Multiscan Spectrum […]
Supplementary Figure 5: Maximum normalized response measured as the srfA promoter activity of B. subtilis PS-216 (∆comQ, PsrfAA -yfp) (no signal production) to the exogenously added signal molecule, SM, (ComX). […]
SS buffer at 4 °C as measured by HPLC. […]

B. subtilis proteases [4] = assay: Biological degradation of ComX in B. subtilis spent medium; type: in vitro ADME, Bacillus subtilis; conditions: spent CM medium max 7 h old; assumption from low protease content
Description: cells per unit volume (cell density), N(t) , and the time cells were producing the molecule, t . The molecule of interest can potentially get degraded by the degradation rate γ(t ). In the differential form and as a function of time one can express concentration of signal molecule SM(t) as:
dddddd (tt ) = PPdddd (tt ) NN (tt ) − γγ (tt )SSSS (tt ) eq S1 […]
spent medium obtained after 24 h of incubation with PS -216 wt (when the proteases accumulated in enough high concentration). In our case, however, the spent media were maxi mal 7 h old and the protease content of spent CM growth medium used in current study […]
(Supplementary Fig. 7). Therefore , we assumed that biological degradation of SM (ComX) is negligible under conditions in this study. Under the buffered conditions (as in CM growth […]
experiments where we applied our model. Therefore, in our modeling we assumed that degradation rate of SM is negligible (γ(t) ≈ 0) and the eq S 1 can be simplified to: […]
Normalized fluorescence intensity per cell Normalized fluorescence intensity per cell
Supplementary Figure 8: The second replicate (for first replicate, see Fig 5g,h) of the distribution of gene expression measured by single cell fluorescence microscopy. Gene expression level was measured as Na-fluoresceinate standard normalized mean fluorescence intensity per cells expressing comQ -yfp (a) and srfA -cfp (b). […]

B. subtilis proteases [5] = conditions: 24 h MSgg spent medium of PS-216 wt; 24 h incubation; ref Spacapan et al.22; cited from earlier work
Text: page 5: cells per unit volume (cell density), N(t) , and the time cells were producing the molecule, t . The molecule of interest can potentially get degraded by the degradation rate γ(t ). […] The protease content of CM growth medium used in t ...

## ADPITRQWGD [ComX, isoprenylated (farnesylated) quorum sensing signal peptide of B. subtilis, HPLC purified from E. coli ED367]
[1]; 37 °C, CM medium, n = 4
  ComX concentration at which the highest response value is reached: around 10 nM
[1]; 4 h incubation, exogenously added ComX
  Shape of response to ComX: sigmoidal
[1]; first significantly positive response (lower 95% confidence level > 0), 37 °C, CM medium
  Lower limit response (LLR), critical ComX concentration required to induce quantifiable response: 0.2 to 0.5 nM
[1]; read-out: Km, ComX concentration at which half of the maximum response is achieved, Hill fit (Eq. 2) of srfA promoter Yfp fluorescence per cell, CM medium, 37 °C, 3, 4 or 6 h incubation, BSA added, n = 4
  Km: 3 to 5 nM
[2]
  Biosensor BD2876 response to added purified ComX: strongly responded
[3]; purified ComX stock (typically 200 nM) in SS buffer with BSA 50 μg/mL, n = 8 independent experiments
  Half-life time of ComX: about 50 days
[3]; purified ComX, SS buffer
  Chemical stability: strong chemical stability
B. subtilis proteases [4]
  Biological degradation in spent CM medium: negligible
B. subtilis proteases [5]
  Degradation in MSgg spent medium: significant level only after incubating ComX for 24 h; also recorded: can degrade
